Reference: PubChem BioAssay AID1195 (EPA DSSTox, 2008)

Tested on: human maximum recommended daily dose, FDA database
Experiment: DSSTox (FDAMDD) FDA Maximum (Recommended) Daily Dose Database
Settings: active compounds read low
Summary of the method: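 MRDD values come from clinical trials with daily oral dosing, usually for 3–12 months, for the average adult, in mg/day converted to mg/kg-bw/day assuming 60 kg. Antineoplastic mg/m2 doses are divided by 37. Activity score maps log10(1/MRDD mmol) onto 1–100.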

[1] = TherapeuticCategory: antidepressant
[2] = TherapeuticCategory: anticonvulsant
[3] = TherapeuticCategory: antibacterial
[4] = TherapeuticCategory: diuretic, antihypertensive
[5] = TherapeuticCategory: antineoplastic
[6] = TherapeuticCategory: analgesic, anti inflammatory

Compound: CCC(C)(C)C(=O)O[C@H]1C[C@@H](C)C=C2C=C[C@H](C)[C@H](CC[C@@H]3C[C@@H](O)CC(=O)O3)[C@H]21
- maximum recommended daily dose (mmol/kg-bw/day) (TherapeuticCategory: antihyperlipoproteinemic): 0.00159

Compound: CN(C)CC/C=C1\c2ccccc2CSc2ccccc21
- maximum recommended daily dose (mmol/kg-bw/day) [1]: 0.00846

Compound: CCC1(c2ccccc2)NC(=O)N(C)C1=O (centres undefined)
- maximum recommended daily dose (mmol/kg-bw/day) [2]: 0.0458

Compound: COc1ncnc(NS(=O)(=O)c2ccc(N)cc2)c1OC
- maximum recommended daily dose (mmol/kg-bw/day) [3]: 0.0806

Compound: NS(=O)(=O)c1cc2c(cc1C(F)(F)F)NC(Cc1ccccc1)NS2(=O)=O (centres undefined)
- maximum recommended daily dose (mmol/kg-bw/day) [4]: 0.00079

Compound: CCC1(C)CC(=O)NC1=O (centres undefined)
- maximum recommended daily dose (mmol/kg-bw/day) [2]: 0.118

Compound: O=C(O)COc1ccc(C(=O)c2cccs2)c(Cl)c1Cl
- maximum recommended daily dose (mmol/kg-bw/day) (TherapeuticCategory: diuretic, uricosuric, antihypertensive): 0.0252

Compound: CC(C)(N)Cc1ccc(Cl)cc1
- maximum recommended daily dose (mmol/kg-bw/day) (TherapeuticCategory: anorexic): 0.00588

Compound: CC(C)NNC(=O)c1ccncc1
- maximum recommended daily dose (mmol/kg-bw/day) (TherapeuticCategory: monoamine oxidase inhibitor, antidepressant): 0.0139

Compound: CCN1C(=O)NC(c2ccccc2)C1=O (centres undefined)
- maximum recommended daily dose (mmol/kg-bw/day) [2]: 0.245

Compound: CC(=O)N[C@H]1[C@H]([C@H](O)[C@H](O)CO)OC(C(=O)O)=C[C@@H]1N=C(N)N
- maximum recommended daily dose (mmol/kg-bw/day) (TherapeuticCategory: neuraminidase inhibitors): 0.001

Compound: CCC1C(=O)OCC1Cc1cncn1C (centres undefined)
- maximum recommended daily dose (mmol/kg-bw/day) (TherapeuticCategory: antiglaucoma, miotic): 0.0024

Compound: Cc1ccc(N(CC2=NCCN2)c2cccc(O)c2)cc1
- maximum recommended daily dose (mmol/kg-bw/day) (TherapeuticCategory: antihypertensive, diagnostic aid): 0.000594

Compound: NCCCC[C@H](N)C(=O)O
- maximum recommended daily dose (mmol/kg-bw/day) (TherapeuticCategory: nutrient): 0.684

Compound: COC(=O)CCc1ccc(OCC(O)CNC(C)C)cc1 (centres undefined)
- maximum recommended daily dose (mmol/kg-bw/day) (TherapeuticCategory: antiarrhythmic): 0.000677

Compound: CC(=O)OCCN1CCN(CCCN2c3ccccc3Sc3ccc(Cl)cc32)CC1
- maximum recommended daily dose (mmol/kg-bw/day) (TherapeuticCategory: antipsychotic): 0.00336

Compound: Cc1cc(-c2ccc(N=Nc3ccc4c(S(=O)(=O)O)cc(S(=O)(=O)O)c(N)c4c3O)c(C)c2)ccc1N=Nc1ccc2c(S(=O)(=O)O)cc(S(=O)(=O)O)c(N)c2c1O
- maximum recommended daily dose (mmol/kg-bw/day) (TherapeuticCategory: diagnostic aid): 0.000347

Compound: CCC(=O)O[C@](Cc1ccccc1)(c1ccccc1)[C@H](C)CN(C)C
- maximum recommended daily dose (mmol/kg-bw/day) (TherapeuticCategory: narcotic analgesic): 0.0191

Compound: O=c1[nH]cc(F)c(=O)[nH]1
- maximum recommended daily dose (mmol/kg-bw/day) [5]: 0.0923

Compound: CC(COc1ccccc1)N(CCCl)Cc1ccccc1 (centres undefined)
- maximum recommended daily dose (mmol/kg-bw/day) (TherapeuticCategory: antihypertensive): 0.00658

Compound: CC(C)C[C@H](N)C(=O)O
- maximum recommended daily dose (mmol/kg-bw/day) (TherapeuticCategory: nutrient): 0.762

Compound: CCn1cc(C(=O)O)c(=O)c2cc3c(cc21)OCO3
- maximum recommended daily dose (mmol/kg-bw/day) [3]: 0.0957

Compound: O[C@H]([C@H](O)[C@@H](O)CBr)[C@H](O)CBr
- maximum recommended daily dose (mmol/kg-bw/day) [5]: 0.0158

Compound: Cc1cccc(Nc2ccncc2S(=O)(=O)NC(=O)NC(C)C)c1
- maximum recommended daily dose (mmol/kg-bw/day) (TherapeuticCategory: diuretic): 0.00956

Compound: CC(C(=O)O)c1ccc2c(c1)Cc1cccnc1O2 (centres undefined)
- maximum recommended daily dose (mmol/kg-bw/day) (TherapeuticCategory: anti inflammatory): 0.0147

Compound: CC(C)[C@@H](C)/C=C/[C@@H](C)[C@H]1CC[C@H]2/C(=C/C=C3\C[C@@H](O)CC[C@@H]3C)CCC[C@]12C
- maximum recommended daily dose (mmol/kg-bw/day) (TherapeuticCategory: regulator): 0.000105

Compound: O=[N+]([O-])c1cc(Cl)cc(-c2cc(Cl)cc([N+](=O)[O-])c2O)c1O
- maximum recommended daily dose (mmol/kg-bw/day) (TherapeuticCategory: none): 0.0058

Compound: Cc1ccccc1C(OCCN(C)C)c1ccccc1 (centres undefined)
- maximum recommended daily dose (mmol/kg-bw/day) (TherapeuticCategory: skeletal muscle relaxant, antihistiminic): 0.0248

Compound: Oc1c(Cl)cc(Cl)c2cccnc12
- maximum recommended daily dose (mmol/kg-bw/day) (TherapeuticCategory: antiseborrhetic): 0.312

Compound: CN(C)CCN(Cc1cccs1)c1ccccn1
- maximum recommended daily dose (mmol/kg-bw/day) (TherapeuticCategory: antihistaminic): 0.0255

Compound: CCn1nc(C(=O)O)c(=O)c2cc3c(cc21)OCO3
- maximum recommended daily dose (mmol/kg-bw/day) [3]: 0.0637

Compound: C=CCC1(C(C)C#CCC)C(=O)NC(=O)N(C)C1=O (centres undefined)
- maximum recommended daily dose (mmol/kg-bw/day) (TherapeuticCategory: anesthetic): 0.00762

Compound: CS(=O)(=O)c1ccc(C2=C(c3ccccc3)C(=O)OC2)cc1
- maximum recommended daily dose (mmol/kg-bw/day) [6]: 0.00265

Compound: COc1cc2c3cc1Oc1cc(ccc1O)C[C@@H]1c4c(cc(OC)c(O)c4Oc4ccc(cc4)C[C@@H]3N(C)CC2)CC[N+]1(C)C
- maximum recommended daily dose (mmol/kg-bw/day) (TherapeuticCategory: skeletal muscle relaxant, diagnostic aid): 0.000979

Compound: CNC(=O)Oc1ccc2c(c1)[C@]1(C)CCN(C)[C@@H]1N2C
- maximum recommended daily dose (mmol/kg-bw/day) (TherapeuticCategory: cholinergic, miotic): 6.07e-05

Compound: NS(=O)(=O)c1cc(C(=O)O)c(NCc2ccco2)cc1Cl
- maximum recommended daily dose (mmol/kg-bw/day) [4]: 0.0302

Compound: CN(C)CCCN1c2ccccc2C(C)(C)c2ccccc21
- maximum recommended daily dose (mmol/kg-bw/day) [1]: 0.034

Compound: CC(C(=O)O)c1cccc(Oc2ccccc2)c1 (centres undefined)
- maximum recommended daily dose (mmol/kg-bw/day) [6]: 0.206

Compound: C#C[C@]1(O)CC[C@H]2[C@@H]3CCC4=CCCC[C@@H]4[C@H]3C(=C)C[C@@]21CC
- maximum recommended daily dose (mmol/kg-bw/day) (TherapeuticCategory: progestogen): 8.05e-06
